{"source": "patent US11730714B2", "about": "“Compounds for the treatment of neuromuscular disorders” (NMD PHARMA A/S, priority 2017, dated 2023)", "key": {"rat soleus muscles": {"test_system": "rat soleus muscles", "assay": "Mg2+ concentration required to depress nerve-stimulated force by 50% (Kd,Mg2+), combination with 3,4-AP", "type": "cell-based", "settings": "combination of C8 and 3,4-diaminopyridine; elevated extracellular Mg2+", "procedure": "FIGS. 6A-6E. […] Muscles from 4-week-old rats were stimulated to contract by activating the motor nerve with short duration pulses in field stimulation. Muscles contracted every 10 min for 2 s in response to 30 Hz stimulation. Four different experimental conditions were used. […] C) similar to A) but this muscle had been pre-incubated with 3,4-AP. […] The force integral (AUC) was determined at each extracellular Mg^2+ concentration. AUC was plotted against Mg^2+ concentration and the data was fitted to a sigmoidal function. This provided the extracellular Mg^2+ concentration that was required to reduce the nerve-stimulated force to 50% (Mg50) under the four different conditions (see Table 5).\nWhile the use of tubocurarine mimics conditions with reduced neuromuscular transmission due to post-synaptic dysfunction (myasthenia gravis, neuromuscular blockade), the experiments with elevated extracellular Mg^2+ mimics conditions with pre-synaptic dysfunction akin to a range of neuromuscular disorders including Lambert Eaton syndrome, motor neuron disorders and polyneuropathy. […] Based on this it was determined whether recovery of nerve-stimulated force at elevated extracellular Mg^2+ with CIC-1 inhibiting compounds could be added to force recovery with 3,4-AP. […] To quantify the effect of compounds on Mg^2+ sensitivity the force at the different Mg^2+ concentrations was determined. […]"}, "rats injected with MAB35": {"test_system": "rats injected with MAB35", "assay": "Rotarod running performance in passive myasthenia gravis induced in rats with MAB35 antibody", "type": "in vivo, rat", "settings": "after stable reduction in performance by MAB35, vs sham", "procedure": "FIG. 10. […] Prior to I.P. injection of MAB35 the animals had been familiarized to the rotarod over three training sessions distributed over two days. […] After this treatment performance was monitored every second hour. *Indicates significant different as evaluated using student t-test.\n(§1) In both series of experiments, running performance was tested on a rotarod using a protocol where the rod was accelerated gradually over a 5 min period, and the running time and covered distance before falling off the rod were measured. […] Experiments with tubocurarine were carried out over two days, and on each day the effect of tubocurarine on running performance was tested. On the first day only tubocurarine was injected. […] On the second day, the animals were first allowed to run on the rotarod, and all animals performed normally. […] The allocation of the animals into the two groups (C8 or sham) was random and unknown to the experimenter (blinded experimental design).\nIn experiments with MAB35, animals were first familiarized with the rotarod over two consecutive days and then injected I.P. with MAB35. After injection, rotarod performance was then again monitored regularly over the consecutive two days. […] A considerable number of animals, however, became moribund failing to walk and they had altered ventilation (rapid) and pronounced ptosis. These animals were not included in experiments. […]"}, "[1]": {"test_system": "isolated rat soleus muscles", "assay": "Recovery of nerve-stimulated force in isolated rat soleus muscles exposed to 3.5 mM Mg2+", "type": "cell-based", "settings": "3.5 mM Mg2+, after 70 min at elevated Mg2+", "procedure": "Experiments were performed using rat soleus muscles from either young (4-wk-old) or adult Wistar rats (12-14-week-old). Animal handling, killing and isolation of muscle is described elsewhere All experiments were performed using normal Krebs-Ringer bicarbonate solution (NKR). In solutions with elevated Mg^2+, MgCl2 was added to NKR-solution causing minor increases in osmolarity and ionic strength. In solutions with elevated K^+, 4 mM NaCl was replaced by 4 mM KCl in the NKR.\nThe aim was to find compounds that by inhibition of CIC-1 channels can recover nerve-stimulated force under conditions of fatigue including conditions where fatigue is caused by compromised neuromuscular transmission. Neuromuscular transmission dysfunction can develop because of both pre- and/or post-synaptic complications in connection with a disorder or as part of neuromuscular blockade during/after surgery. In the initial series of drug testing, experiments were performed with isolated muscles in the presence of sub-maximal ACh receptor antagonist tubocurarine. […] To mimic conditions with pre-synaptic complication (Lambert Eaton syndrome, motor neuron disorder, polyneuropathy) the intact nerve-muscle preparations were incubated at elevated extracellular Mg^2+, which is known to suppress release of ACh from nerve terminals of motor neurons."}, "[2]": {"test_system": "rats injected with tubocurarine", "assay": "Rotarod running performance of rats after I.P. tubocurarine (myasthenia-like phenotype)", "type": "in vivo, rat", "settings": "C8 20 mg/kg I.P. 2 hrs before tubocurarine 0.13 mg/kg I.P.; tested 21 min after tubocurarine; sham around 2%", "procedure": "FIGS. 9A-9B. […] FIG. 9A illustrates the design of the experiments. Prior to Day One the animals had been familiarized to the rotarod in three training sessions distributed over two days.\nas §1\nIn the first series of in vivo experiments, myasthenia gravis was simply mimicked by I.P. injection of tubocurarine (0.13 mg/kg) in animals that had been familiarized to running on the rotarod. On the first of two consecutive days, tubocurarine was injected I.P. and the running performance of the animal was tested 21 minutes after this injection. On the second day of experimentation, the animals first performed a test run to ensure that they were no longer affected by the tubocurarine injected the day before. […]"}}, "data": [{"smiles": "C[C@H](Oc1ccc(Br)cc1)C(=O)O", "note": "[Compound C8, (2S)-2-(4-bromophenoxy)propanoic acid]", "values": [{"measurement": "effect on recovery of neuromuscular transmission", "setting": "rat soleus muscles", "value": "unexpected synergistic effect"}, {"measurement": "rotarod performance after injection", "setting": "rats injected with MAB35; C8 20 mg/kg", "value": "decline was reduced"}, {"measurement": "rotarod performance after injection", "setting": "rats injected with MAB35; C8 30 mg/kg", "value": "clear recovery of performance"}, {"measurement": "50 μM % change after addition (AUC of nerve-stimulated force)", "setting": "[1]; 50 μM compound", "value": "13 ± 4", "unit": "%"}, {"measurement": "100 μM % change after addition (AUC of nerve-stimulated force)", "setting": "[1]; 100 μM compound", "value": "26 ± 5", "unit": "%"}, {"measurement": "increase in running performance on the second day vs the first day (rotarod)", "setting": "[2]", "value": "around 150%"}]}]}
